From PubChem BioAssay AID1645848
In brackets after ≈: the same amount, converted by molar mass.

settings: buffer; pH 7.4; 6.0 h; 150.0 µM

SMILES	solubility kinetic [µg/mL]
Cl.c1ccc(Nc2nc(NCc3ccco3)c3ccccc3n2)cc1	< 1
COc1cc(-c2csc(N3CCC(C(N)=O)CC3)n2)cc(OC)c1OC	> 56
CCCCCn1c(=O)[nH]c2cc(C(=O)NCCCN3CCC(C)CC3)ccc2c1=O	> 61
COc1ccc(C2CC(=O)Nc3nc(N)sc32)cc1OC (stereo unspecified)	30.5 (≈ 99.8 µM)
CS(=O)(=O)c1ccccc1-c1csc(N2CCC(C(N)=O)CC2)n1	> 54
CC1CCc2ccc(F)cc2N1S(=O)(=O)c1cccs1 (stereo unspecified)	3.12 (≈ 10 µM)
CCNc1oc(-c2cccc3ccccc23)nc1C#N	< 1
CC(C)(C)n1cnc2cc(C(=O)N3CCCCC3)ccc21	> 42
CC(Nc1ccc([S+](=O)([O-])Nc2nccs2)cc1)c1ccccc1 (stereo unspecified)	4.76 (≈ 13.3 µM)
COC(=O)c1cc(Cl)ccc1NC(=O)CSc1ncc(S(=O)(=O)c2ccc(Br)cc2)c(=O)[nH]1	59.1 (≈ 103 µM)
COC(=O)c1ccc(Oc2nc3c(c(=O)n(C)c(=O)n3C)n2CCC(C)C)cc1	< 1
COc1c(C)c2c(c(O)c1C/C=C(\C)CCC(=O)OCCN1CCOCC1)C(=O)OC2	> 64
N#Cc1nc(-c2cccc3ccccc23)oc1NC1COC1	< 1
N#Cc1nc(-c2cccc3ccccc23)oc1NC1CNC1	9.62 (≈ 33.1 µM)
CN(C)c1cccc(-c2nccc(N3CCC(C(N)=O)CC3)n2)c1	> 48
Cc1noc(-c2cn(C3CCN(C(=O)c4ccc(OC(F)(F)F)cc4)CC3)nn2)n1	37.9 (≈ 89.7 µM)
c1ccc(CNc2cc3c(cn2)CN(Cc2cccnc2)CCN3)cc1	36.5 (≈ 106 µM)
NC(=O)C1CCN(c2ncc(-c3cccc(N4CCOCC4)c3)s2)CC1	> 55
FC(F)(F)c1ccc(N2CCN(C(=S)Nc3ccccn3)CC2)cc1	8.21 (≈ 22.4 µM)
CSc1ccc(C(=O)c2[nH]c(=O)[nH]c2C)cc1	> 37
CNc1oc(-c2ccccc2-c2ccccc2)nc1C#N	1.21 (≈ 4.39 µM)
O=C1CCc2cc(S(=O)(=O)Nc3ccc(F)c(Cl)c3)c(F)cc2N1	13.4 (≈ 35.9 µM)
CCc1c(C)nc2c(-c3cnn(-c4cc(CO)ccn4)c3)c[nH]n2c1=O	10.1 (≈ 28.7 µM)
Nc1c(C(=O)Nc2ccc(Cl)c(C(F)(F)F)c2)sc2nc3c(cc12)N1CCC3CC1	< 1
N#Cc1ccc(-c2ccc(CNc3ccc(C4CCNCC4)cc3)o2)cc1	35.2 (≈ 98.6 µM)
COc1ccc(-c2ccc3nc(-c4cc(F)cc(F)c4F)oc3c2)c(OC)c1OC	< 1
Nc1nc(N)c2c(OCC3CCN(Cc4ccccc4F)CC3)cccc2n1	> 56
CC[C@@H](C)Nc1cc(C(=O)NC2CC3CCC(C2)N3c2ccc(C(=O)C3CC3)cn2)c(C)cc1C(N)=O (stereo partly specified)	< 1
COc1ccc(-c2csc(N3CCC(C(N)=O)CC3)n2)cc1	> 47

Continued, values first:

solubility kinetic [µg/mL]	SMILES
< 1	Cc1ccc(S(=O)(=O)NCCC(=O)Nc2nc(-c3ccccc3)cs2)cc1
< 1	COc1nccc(-c2nc(Nc3ccc(F)c(F)c3)c3ccccc3n2)c1Cl
14.2 (≈ 26.1 µM)	COc1ccc(CN2CCc3c(c(=O)n4ncc(C(=O)N5CCN(c6ccccc6OC)CC5)c4n3C)C2)cc1
> 60	COc1ccc(C(=O)N2CCCC(c3nn(-c4ccc(OC)cc4)c(=O)[nH]3)C2)cc1 (stereo unspecified)
22.4 (≈ 54.8 µM)	COc1ccc(-n2nc(C3CCCN(C(=O)c4cccc(OC)c4)C3)[nH]c2=O)cc1 (stereo unspecified)
< 1	CCCCOc1ccccc1C(=O)Nc1ccccc1C(=O)Nc1cccc(S(=O)(=O)C(F)(F)F)c1
< 1	CCN(C(=O)C(NS(=O)(=O)c1ccc(Br)s1)c1ccccc1)c1ccc(C)c(C)c1 (stereo unspecified)
< 1	COc1ccc(-c2cc(C(F)(F)F)nc(SCCC(=O)Nc3cc(C)ccc3O)n2)cc1
< 1	CCS(=O)(=O)c1ncc(N(Cc2ccc(F)cc2)Cc2ccco2)c(C(=O)Nc2cc(C)ccc2C)n1
< 1	Cc1ccccc1C(=O)N1CCc2cc(-c3nc(NC(=O)c4ccc5c(c4)OCO5)sc3C)ccc21
< 1	COc1ccc(NC(=O)c2c(C)c(C(C)=O)c(C)n2C)cc1S(=O)(=O)Nc1ccc(Br)cc1
< 1	Cc1ccc(-c2csc(NC(=O)c3ccccc3NS(=O)(=O)c3ccc(C)cc3)n2)cc1
4.58 (≈ 13.5 µM)	COCCNC(=O)c1ccc(-c2ccc(N3CCCCC3)nc2)cc1
< 1	COc1cccc(CNc2ccc(S(=O)(=O)Nc3cnc4ccccc4c3)cc2)c1O
> 56	CCOC(=O)c1ccc(-n2cnc3cc(C(=O)N4CCCCC4)ccc32)cc1
< 1	COC(=O)C1=C(C)NC(C)=C(C(=O)O[C@@H]2CCCN(Cc3ccccc3)C2)[C@@H]1c1cccc([N+](=O)[O-])c1
> 66	Cc1ccc(S(=O)(=O)Nc2nc3ccc(C)cc3nc2Nc2ccc3c(c2)OCO3)cc1
< 1	CC(C)CS(=O)(=O)c1oc(-c2ccc(F)cc2)nc1S(=O)(=O)c1ccccc1
46.5 (≈ 118 µM)	CN(C)c1cccc(-c2c3c(=O)n(-c4ccccc4Cl)[nH]c3cc(=O)n2C)c1
44 (≈ 80.3 µM)	Cc1c(C)n(Cc2ccc(-c3ccccc3C(=O)O)cc2)c2ccc(C(=O)N[C@@H](C)c3ccc([N+](=O)[O-])cc3)cc12
< 1	Cc1ccc(S(=O)(=O)Nc2ccc(C(=O)Nc3ncc(-c4ccccc4)s3)cc2)cc1

solubility kinetic [µg/mL]	SMILES
> 44	COc1ccccc1C(=O)Nc1nc2nc(C)cc(=O)n2[nH]1
3.79 (≈ 11.2 µM)	COc1cc(Cl)c(C)cc1Nc1c2c(nc3ccccc13)CCC2
25.6 (≈ 52.4 µM)	Cc1nc(Nc2ncc(C(=O)Nc3c(C)cccc3Cl)s2)cc(N2CCN(CCO)CC2)n1
62.9 (≈ 121 µM)	O=C1CCCc2cc(S(=O)(=O)Nc3cnccc3C(=O)Nc3nc(-c4ccccc4)cs3)ccc2N1
< 1	CC(C)Oc1ccc(C(=O)Nc2ccc3c(c2)CCCN3C(=O)c2cccs2)cc1
2.29 (≈ 4.98 µM)	COc1ccccc1CNC(=O)CCCn1nc(C)c2c(C)n(-c3ccc(C)cc3)nc2c1=O
21 (≈ 48.2 µM)	CC(=O)c1c(C)[nH]c(C(=O)Nc2cccc(S(=O)(=O)Nc3cccc(C#N)c3)c2)c1C
< 1	Fc1cc(Nc2nc(-c3ccncc3)nc3ccccc23)ccc1-c1cncnc1
42.7 (≈ 105 µM)	COc1cccc(CNc2ccc(S(=O)(=O)Nc3nc(C)cs3)cc2)c1O
< 1	COc1ccc(Nc2nc(-c3ccncc3)nc3ccccc23)cc1F
> 83	CN(C)c1ccc(CN2CCNc3cc(Nc4ccccc4)ncc3C2)cc1
17.2 (≈ 54.6 µM)	CC(C)NC(=O)c1nc(-c2ccc(Cl)nc2)c2ccccn12
< 1	CCOC(=O)C1CCN(c2ncnc3c2c(-c2ccccc2)cn3-c2ccccc2)CC1
< 1	COc1ccc(Cn2c(CCC(=O)Nc3cc(C)cc(C)c3)nc3cccnc32)cc1
< 1	Cc1nn2c(c1-c1ccccc1-c1ccccc1)N(Cc1ccc(O)cc1)CCC2
34.9 (≈ 88.8 µM)	COc1ccc(-n2nc(C3CCCN(C(=O)Nc4ccccc4)C3)[nH]c2=O)cc1 (stereo unspecified)
< 1	O=C(Nc1ncc(Cc2ccc(C(F)(F)F)cc2)s1)c1ncc(-c2ccccc2)[nH]1
< 1	Cc1cc(-c2nc(Nc3ccc(F)c(F)c3)c3ccccc3n2)cc(C)n1
> 82	Cn1ccc2c(C(=O)NCc3cccnc3)nc(-c3ccc(CO)cc3)cc21
< 1	COc1ccc(-n2c(C)c(C(C)=O)c3ccccc32)cc1
1.39 (≈ 3.19 µM)	Cc1ccc(-c2cc(C(=O)Nc3ccc(-c4noc(=O)[nH]4)cc3)c3ccccc3n2)cc1C
